Test results reported in patent publication US20260007684A1, “AMIDE DERIVATIVES FOR INHIBITING NLRP3 AND USES THEREOF” (Ventus Therapeutics U.S., Inc., priority 2023, published 2026).

Target: human NLRP3 (Homo sapiens (Human), UniProt Q96P20)
Assay: Scintillation Proximity (SPA) NLRP3 Assay: displacement of 3H-MCC950
Assay type: binding
Settings: SPA IC50, displacement of 3H-MCC950

human NLRP3, sequence (Q96P20 whole entry): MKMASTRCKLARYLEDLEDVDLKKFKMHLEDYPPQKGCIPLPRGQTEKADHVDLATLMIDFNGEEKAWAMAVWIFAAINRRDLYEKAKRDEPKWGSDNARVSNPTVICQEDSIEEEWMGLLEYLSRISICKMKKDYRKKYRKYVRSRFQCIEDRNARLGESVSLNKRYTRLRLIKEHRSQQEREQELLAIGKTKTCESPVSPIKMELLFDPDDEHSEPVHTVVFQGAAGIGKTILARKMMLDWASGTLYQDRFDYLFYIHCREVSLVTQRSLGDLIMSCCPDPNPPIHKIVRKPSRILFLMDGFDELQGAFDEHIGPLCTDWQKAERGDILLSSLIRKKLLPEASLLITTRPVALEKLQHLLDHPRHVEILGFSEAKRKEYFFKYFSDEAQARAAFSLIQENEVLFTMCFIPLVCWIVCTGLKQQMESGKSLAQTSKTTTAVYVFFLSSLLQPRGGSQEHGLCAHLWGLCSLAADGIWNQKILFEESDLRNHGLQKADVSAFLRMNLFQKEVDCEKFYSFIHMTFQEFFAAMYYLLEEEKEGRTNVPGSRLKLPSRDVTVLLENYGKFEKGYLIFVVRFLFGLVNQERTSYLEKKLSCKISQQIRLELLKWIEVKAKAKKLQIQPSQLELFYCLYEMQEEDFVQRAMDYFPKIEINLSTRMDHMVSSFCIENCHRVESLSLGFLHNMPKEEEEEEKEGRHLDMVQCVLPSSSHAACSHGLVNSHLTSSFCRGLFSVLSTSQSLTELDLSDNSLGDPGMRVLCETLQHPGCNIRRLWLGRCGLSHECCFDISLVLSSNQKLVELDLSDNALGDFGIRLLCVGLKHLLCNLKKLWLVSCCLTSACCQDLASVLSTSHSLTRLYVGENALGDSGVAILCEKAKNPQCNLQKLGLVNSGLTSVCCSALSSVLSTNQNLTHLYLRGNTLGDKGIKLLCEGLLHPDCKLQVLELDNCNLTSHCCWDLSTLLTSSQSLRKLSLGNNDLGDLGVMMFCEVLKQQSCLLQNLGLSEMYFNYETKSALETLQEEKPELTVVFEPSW

| Compound | IC50 |
| --- | --- |
| C[C@@H]1C[C@H]2CC[C@@H]([C@@H](NC(=O)C3(c4ccc(C(F)(F)F)cc4)CC3)C1)N2c1nnn[nH]1 [104D*, N-((1S,2S,4S,6R)-4-methyl-9-(1H-tetrazol-5-yl)-9-azabicyclo[4.2.1]nonan-2-yl)-1-(4-(trifluoromethyl)phenyl)cyclopropane-1-carboxamide] | 10 to 50 µM |

Same assay, conditions: displacement of 3H-MCC950; read-out: SPA IC50

| Compound | IC50 |
| --- | --- |
| C[C@H]1CCN(c2nnn[nH]2)C[C@H](NC(=O)C2(c3ccc(OC(F)F)cc3F)CC2)C1 (single isomer, unassigned) [3C*] | > 100 µM |
| C[C@H]1CCN(c2nnn[nH]2)C[C@H](NC(=O)C2(c3ccc(C(F)F)cc3)CC2)C1 (single isomer, unassigned) [5C*, 1-(4-(difluoromethyl)phenyl)-N-(5-methyl-1-(1H-tetrazol-5-yl)azepan-3-yl)cyclopropane-1-carboxamide] | > 100 µM |
| C[C@@H]1C[C@H](NC(=O)C2(c3ccc(OC(F)F)cc3F)CC2)[C@H]2CC[C@@H]1N2c1nnn[nH]1 (stereo in doubt) [101B*, 1-(4-(difluoromethoxy)-2-fluorophenyl)-N-(4-methyl-8-(1H-tetrazol-5-yl)-8-azabicyclo[3.2.1]octan-2-yl)cyclopropane-1-carboxamide] | > 100 µM |
| Cc1cc(C2(C(=O)N[C@@H]3C[C@@H](C)CCN(c4nnn[nH]4)C3)CC2)ccc1C(F)(F)F (single isomer, unassigned) [6C*, N-(5-methyl-1-(1H-tetrazol-5-yl)azepan-3-yl)-1-(3-methyl-4-(trifluoromethyl)phenyl)cyclopropane-1-carboxamide] | > 100 µM |
| C[C@@H]1C[C@H](NC(=O)C2(c3ccc(C(F)F)cc3)CC2)[C@H]2CC[C@@H]1N2c1nnn[nH]1 [86B*, 1-(4-(difluoromethyl)phenyl)-N-((1R,2S,4R,5S)-4-methyl-8-(1H-tetrazol-5-yl)-8-azabicyclo[3.2.1]octan-2-yl)cyclopropane-1-carboxamide] | 10 to 50 µM |
| C[C@@H]1C[C@H](NC(=O)C2(c3ccc(OC(F)(F)F)cc3)CC2)[C@H]2CC[C@@H]1N2c1nnn[nH]1 [82B*, N-((1R,2S,4R,5S)-4-methyl-8-(1H-tetrazol-5-yl)-8-azabicyclo[3.2.1]octan-2-yl)-1-(4-(trifluoromethoxy)phenyl)cyclopropane-1-carboxamide] | > 100 µM |
| C[C@H]1CCN(c2nnn[nH]2)C[C@H](NC(=O)C2(c3ccc(C(F)(F)F)c(OC(F)F)c3)CC2)C1 (single isomer, unassigned) [54C*] | > 100 µM |
| C[C@H]1C[C@@H](NC(=O)C2(c3ccc(C(F)(F)F)nc3O)CC2)CN(c2nnn[nH]2)C1 [Compound 24A, 1-(2-hydroxy-6-(trifluoromethyl)pyridin-3-yl)-N-((3R,5S)-5-methyl-1-(1H-tetrazol-5-yl)piperidin-3-yl)cyclopropane-1-carboxamide] | 1 to 10 µM |
| C[C@H]1C[C@H](NC(=O)C2(c3ccc(C4CC4)c(F)c3O)CC2)[C@@H]2CC[C@H]1N2c1nnn[nH]1 [83D*, 1-(4-cyclopropyl-3-fluoro-2-hydroxyphenyl)-N-((1S,2S,4S,5R)-4-methy1-8-(1H-tetrazol-5-yl)-8-azabicyclo[3.2.1]octan-2-yl)cyclopropane-1-carboxamide] | > 100 µM |
| C[C@@H]1CCN(c2nnn[nH]2)C[C@@H](NC(=O)C2(c3ccc(Cl)cc3Cl)CC2)C1 (single isomer, unassigned) [55B*] | 10 to 50 µM |
| C[C@H]1C[C@H](NC(=O)C2(c3ccc(OC(F)F)cc3F)CC2)[C@@H]2CC[C@H]1N2c1nnn[nH]1 (stereo in doubt) [101D*, 1-(4-(difluoromethoxy)-2-fluorophenyl)-N-(4-methyl-8-(1H-tetrazol-5-yl)-8-azabicyclo[3.2.1]octan-2-yl)cyclopropane-1-carboxamide] | 10 to 50 µM |
| C[C@H]1CCN(c2nnn[nH]2)C[C@@H](NC(=O)C2(c3ccc(Cl)c(F)c3F)CC2)C1 (single isomer, unassigned) [4D*, 1-(4-chloro-2,3-difluorophenyl)-N-(5-methyl-1-(1H-tetrazol-5-yl)azepan-3-yl)cyclopropane-1-carboxamide] | 1 to 10 µM |
| C[C@@H]1CC[C@@H](NC(=O)C2(c3ccc(C(F)(F)F)cc3O)CC2)CN(c2nnn[nH]2)C1 [89C*, 1-(2-hydroxy-4-(trifluoromethyl)phenyl)-N-((3R,6R)-6-methyl-1-(1H-tetrazol-5-yl)azepan-3-yl)cyclopropane-1-carboxamide] | 1 to 10 µM |
| C[C@@H]1C[C@H](NC(=O)C2(c3ccc(C(F)(F)F)cc3)CC2)[C@H]2CC[C@@H]1N2c1nnn[nH]1 [79B*, N-((1R,2S,4R,5S)-4-methy1-8-(1H-tetrazol-5-yl)-8-azabicyclo[3.2.1]octan-2-yl)-1-(4-(trifluoromethyl)phenyl)cyclopropane-1-carboxamide] | 10 to 50 µM |
| Cc1ccc(C2(C(=O)N[C@H]3C[C@H](C)[C@H]4CC[C@@H]3N4c3nnn[nH]3)CC2)cc1 [87D*, N-((1S,2S,4S,5R)-4-methy1-8-(1H-tetrazol-5-yl)-8-azabicyclo[3.2.1]octan-2-yl)-1-(p-tolyl)cyclopropane-1-carboxamide] | > 100 µM |
| O=C(N[C@H]1CCC[C@@H]2CC[C@H]1N2c1nnn[nH]1)C1(c2ccc(C(F)(F)F)cc2O)CC1 [88B*, N-((1R,2S,6R)-9-(1H-tetrazol-5-yl)-9-azabicyclo[4.2.1]nonan-2-yl)-1-(2-hydroxy-4-(trifluoromethyl)phenyl)cyclopropane-1-carboxamide] | < 1 µM |
| C[C@H]1C[C@H](NC(=O)C2(c3ccc(Cl)cc3)CC2)[C@@H]2CC[C@H]1N2c1nnn[nH]1 [80D*, 1-(4-chlorophenyl)-N-((1S,2S,4S,5R)-4-methyl-8-(1H-tetrazol-5-yl)-8-azabicyclo[3.2.1]octan-2-yl)cyclopropane-1-carboxamide] | 50 to 100 µM |

More lines, now with the values ahead:

| IC50 | Compound |
| --- | --- |
| 10 to 50 µM | C[C@@H]1CCN(c2nnn[nH]2)C[C@@H](NC(=O)C2(c3ccc(SC(F)(F)F)cc3)CC2)C1 (single isomer, unassigned) [69B*] |
| 1 to 10 µM | C[C@H]1CCN(c2nnn[nH]2)C[C@@H](NC(=O)C2(c3ccc(C(F)(F)F)c(F)c3O)CC2)C1 (single isomer, unassigned) [31D*, 1-(3-fluoro-2-hydroxy-4-(trifluoromethyl)phenyl)-N-(5-methyl-1-(1H-tetrazol-5-yl)azepan-3-yl)cyclopropane-1-carboxamide] |
| 1 to 10 µM | C[C@H]1CCN(c2nnn[nH]2)C[C@@H](NC(=O)C2(c3ccc(C4CC4)cc3)CC2)C1 (single isomer, unassigned) [2D*] |
| 50 to 100 µM | C[C@H]1CCN(c2nnn[nH]2)C[C@H](NC(=O)C2(c3ccc(OC(F)(F)F)cc3F)CC2)C1 (single isomer, unassigned) [64C*] |
| 50 to 100 µM | C[C@H]1CCN(c2nnn[nH]2)C[C@H](NC(=O)C2(c3ccc(Cl)cc3F)CC2)C1 (single isomer, unassigned) [56C*] |
| 1 to 10 µM | C[C@@H]1CCN(c2nnn[nH]2)C[C@H](NC(=O)C2(c3ccc(C4CCC4)cc3)CC2)C1 (single isomer, unassigned) [8A*, 1-(4-cyclobutylphenyl)-N-(5-methyl-1-(1H-tetrazol-5-yl)azepan-3-yl)cyclopropane-1-carboxamide] |
| 10 to 50 µM | C[C@@H]1CCN(c2nnn[nH]2)C[C@@H](NC(=O)C2(c3ccc(Cl)c(F)c3)CC2)C1 (single isomer, unassigned) [65B*] |
| 10 to 50 µM | Cc1ccc(C2(C(=O)N[C@@H]3C[C@@H](C)CCN(c4nnn[nH]4)C3)CC2)c(O)c1F (single isomer, unassigned) [74C*] |
| < 1 µM | C[C@H]1CCN(c2nnn[nH]2)C[C@@H](NC(=O)C2(c3ccc(Cl)cc3O)CC2)C1 (single isomer, unassigned) [60D*] |
| 50 to 100 µM | C[C@@H]1CC[C@@H](NC(=O)C2(c3ccc(C4CC4)cc3O)CC2)CN(c2nnn[nH]2)C1 (single isomer, unassigned) [91C*] |
| 1 to 10 µM | C[C@@H]1CCN(c2nnn[nH]2)C[C@@H](NC(=O)C2(c3ccc(Cl)c(F)c3O)CC2)C1 (single isomer, unassigned) [18B*, 1-(4-chloro-3-fluoro-2-hydroxyphenyl)-N-(5-methyl-1-(1H-tetrazol-5-yl)azepan-3-yl)cyclopropane-1-carboxamide] |
| > 100 µM | C[C@H]1CCN(c2nnn[nH]2)C[C@H](NC(=O)C2(c3ccc(SC(F)(F)F)cc3)CC2)C1 (single isomer, unassigned) [69C*] |
| 10 to 50 µM | C[C@H]1CCN(c2nnn[nH]2)C[C@H](NC(=O)C2(c3ccc(OC(F)F)c(F)c3)CC2)C1 (single isomer, unassigned) [73C*] |
| 1 to 10 µM | C[C@@H]1CCN(c2nnn[nH]2)C[C@@H](NC(=O)C2(c3ccc(OC(F)(F)F)c(F)c3O)CC2)C1 (single isomer, unassigned) [28B*, 1-(3-fluoro-2-hydroxy-4-(trifluoromethoxy)phenyl)-N-(5-methyl-1-(1H-tetrazol-5-yl)azepan-3-yl)cyclopropane-1-carboxamide] |
| 10 to 50 µM | C[C@@H]1CCN(c2nnn[nH]2)C[C@@H](NC(=O)C2(c3ccc(Cl)nc3O)CC2)C1 (single isomer, unassigned) [100B*] |
| > 100 µM | C[C@@H]1[C@H](NC(=O)C2(c3ccc(Cl)cc3)CC2)CCCN1c1nnn[nH]1 [Compound 40A, 1-(4-chlorophenyl)-N-[(2R,3R)-2-methyl-1-(1H-tetrazol-5-yl)-3-piperidyl]cyclopropanecarboxamide] |
| 10 to 50 µM | C[C@H]1CCN(c2nnn[nH]2)C[C@H](NC(=O)C2(c3ccc(Cl)c(F)c3)CC2)C1 (single isomer, unassigned) [65C*] |
| 50 to 100 µM | C[C@H]1CCN(c2nnn[nH]2)C[C@H](NC(=O)C2(c3ccc(Cl)c(F)c3F)CC2)C1 (single isomer, unassigned) [4C*, 1-(4-chloro-2,3-difluorophenyl)-N-(5-methyl-1-(1H-tetrazol-5-yl)azepan-3-yl)cyclopropane-1-carboxamide] |
| 1 to 10 µM | O=C(NC1CC(C2CC2)CN(c2nnn[nH]2)C1)C1(c2ccc(Cl)cc2)CC1 (single isomer, unassigned) [Rac-13A*/D*, 1-(4-chlorophenyl)-N-(5-cyclopropyl-1-(1H-tetrazol-5-yl)piperidin-3-yl)cyclopropane-1-carboxamide] |
| 1 to 10 µM | C[C@@H]1CCN(c2nnn[nH]2)C[C@@H](NC(=O)C2(c3ccc(Cl)cc3F)CC2)C1 (single isomer, unassigned) [56B*] |
